Key:
hemoglobin [1] = target: T1, hemoglobin (Homo sapiens, UniProt P68871); settings: relative to DPG; cited from earlier work
hemoglobin [2] = target: T1, hemoglobin; settings: pH 7.4, 37 degrees C.; cited from earlier work
[3] = Tolerability, serum ions and blood counts in mice after oral ITPP; format: in vivo, C57BL/6 mice
Experimental: Three (3) control mice drank pure water, and four (4) control mice a solution of myoinositol hexaphosphate (IHP) (same concentration and pH as ITPP).
Figure 3 contains the mean values and SD for the serum concentration of sodium, potassium and calcium obtained on day 0, 7 and 11 after start drinking ITPP (4 mice), IHP (3 mice) or water (3 mice).
Blood counts were measured from all mice, on day 0, 7 and 11.

[4] = Tolerability and serum ions in mice after intraperitoneal ITPP; format: in vivo
Experimental: (§1) When ITPP (pH 7, 200µl) was injected intraperitoneally in mice, the P50 values of circulating red blood cells were shifted up to 23%. […] The level of ions, such as sodium, potassium and calcium were normal after ip injection. Six (6) mice were each injected intraperitoneally with 45-150 mM (= 0.17-0.88 g/kg body weight) of ITPP.

whole blood = assay: In vitro P50 shift, whole blood / red blood cells incubated with ITPP; format: cell-based, murine
VEGF mRNA = VEGF mRNA by RT-PCR in Lewis Lung carcinoma tumors of mice drinking ITPP; format: in vivo, C57BL/6 mice; settings: LLC tumors, mice having received ITPP 20g/L orally, day 9, versus controls; quantification of gel assays
Experimental: ITPP, when administered orally, intravenously, or intraperitoneally, inhibits angiogenesis in growing tumors by enhancing PO2 in the forming tumors. […] All animals received then 1x10^6 Lewis Lung carcinoma (LLC) cells, injected in the dorsal cavity. At different time points, the VEGF mRNA were assayed by RT-PCR in the tumors growing in both groups of mice.
There was a difference in the level of mRNA of the VEGF gene in both groups. […] The RT-PCR agarose gel assay of VEGF mRNAs from tumor tissue taken from 2 mice each on day 15 after inoculation of LLC cells (track 1: controls, track 2: ITPP treated animals) and day 30 after inoculation (track 3: control animals, track 4: ITPP treated animals).
Quantification of the gel assays indicated a reduction by a factor of 10,000 of the amount of VEGF mRNAs detected in the tumors of animals having received ITPP, at day 9 and then, while differences remain between treated and untreated animals, they tend to decrease.

[5] = tested on: circulating red blood cells; assay: Right shift of the ODC in mice, ITPP injected intraperitoneally; format: in vivo; settings: intraperitoneal, pH 7, 200µl, 45-150 mM (0.17-0.88 g/kg body weight)
Experimental: as §1

[6] = Right shift of P50 in piglets, ITPP injected intravenously; format: in vivo
Experimental: ITPP was also injected intravenously (IV) in piglets.
(§2) Based upon this observation, a CaCl2 (equimolar to ITPP) solution was injected with the ITPP solution, so that the dissociated phosphate groups of ITPP were saturated. None of the side effects observed previously occurred. […] The level of the other ions sodium and potassium was unchanged after IV injection of ITPP in piglets.

[7] = Serum ion levels in piglets after intravenous ITPP; format: in vivo; settings: for Ca^2+ conc.: piglet's circulation blood
Experimental: In order to check possible side effects of ITPP the level of calcium in the serum of the injected piglet was determined. A strong drop in the Ca^2+ concentration in the animal's blood immediately after infusion indicated the possibility that ITPP, with 3 dissociated phosphate groups binds Ca^2+, reducing thus its availability as free ion in the blood. One day after infusion the concentration of Ca^2+ in the piglets' blood was restored to the normal value. Table 1: Ca2+ concentration in the piglet's circulation blood
as §2

murine hemoglobin = murine hemoglobin (Mus musculus, UniProt P01942+P02088); assay: In vitro P50 shift, mixtures of hemoglobin and ITPP, HEMOX analyzer; format: biochemical; settings: with murine hemoglobin
Experimental: ITPP was tested for its ability to induce a decrease of the O2-affinity of hemoglobin measured as a shift of the P50 value (P50 at 50% saturation of hemoglobin). With murine hemoglobin and whole blood, P50 shifts to higher PO2 of up to 250% with hemoglobin and up to 40% with whole blood were observed.
For the in vitro experiments ITPP was dissolved in deionized water, pH was adjusted at pH 7 and, for incubation with whole blood, the osmolality of the ITPP solutions was adjusted with glucose to 270-297 mOsM. Mixtures of hemoglobin and ITPP were measured with a HEMOX analyzer (PD Marketing, London) immediately. Red blood cells were incubated with ITPP for 1 hour at 37[deg.]C. Following incubation, the cells were washed 3 times with Bis-Tris-buffer (PH=7.0) and then used for P50 measurement.

[8] = tested on: murine circulating red blood cells; assay: Right shift of the O2-hemoglobin dissociation curve in mice, ITPP orally in drinking water; format: in vivo, C57BL/6 mice
Experimental: ITPP was dissolved in drinking water at a 20g/L-concentration (= 27mM, pH ~7.0.) and offered for drinking ad libitum.
Twelve (12) C57BL/6 mice were fed the ITPP-solution (20g/L-concentration = 27mM, pH -7.0) for 4 days (up to 25 ml per 24 hrs). Three (3) control mice drank pure water, and four (4) control mice a solution of myoinositol hexaphosphate (IHP) (same concentration and pH as ITPP). Blood was collected from all mice on day 0 (before treatment started), and on days 1, 2, 4, 6, 7, 8, 10, 11 and 12 (after treatment had started), in order to measure P50 values.

T1 sequence (P69905 2-142 partner limits assumed): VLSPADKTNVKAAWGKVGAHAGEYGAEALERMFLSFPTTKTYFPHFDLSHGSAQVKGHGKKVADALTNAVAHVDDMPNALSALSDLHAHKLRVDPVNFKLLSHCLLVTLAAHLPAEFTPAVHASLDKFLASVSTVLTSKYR
T1 sequence (P68871 2-147 limits assumed): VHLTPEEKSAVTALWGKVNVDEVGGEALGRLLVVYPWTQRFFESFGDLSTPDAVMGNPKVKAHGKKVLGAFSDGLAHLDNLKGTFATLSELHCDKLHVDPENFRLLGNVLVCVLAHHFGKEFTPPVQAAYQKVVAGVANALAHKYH
murine hemoglobin, sequence (P01942 2-142 limits assumed): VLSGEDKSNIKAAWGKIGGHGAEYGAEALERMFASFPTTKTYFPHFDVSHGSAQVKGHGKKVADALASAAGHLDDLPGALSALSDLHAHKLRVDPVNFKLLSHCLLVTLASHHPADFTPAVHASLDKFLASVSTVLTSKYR
murine hemoglobin, sequence (P02088 2-147 limits assumed): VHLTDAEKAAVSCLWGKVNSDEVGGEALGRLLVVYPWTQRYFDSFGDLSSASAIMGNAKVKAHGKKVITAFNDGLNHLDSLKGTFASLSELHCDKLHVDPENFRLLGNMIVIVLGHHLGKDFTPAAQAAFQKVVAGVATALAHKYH

O=P(O)(O)O[C@H]1[C@H](OP(=O)(O)O)[C@@H](OP(=O)(O)O)[C@H](OP(=O)(O)O)[C@@H](OP(=O)(O)O)[C@H]1OP(=O)(O)O [IHP, inositol hexaphosphate]
higher affinity to hemoglobin than DPG (hemoglobin [1]): 1000 fold | P50 of hemoglobin (hemoglobin [2]): ≤ 96.4 mm, Hg

O=P1(O)OC2C3OP(=O)(O)OP(=O)(O)OC3C3OP(=O)(O)OP(=O)(O)OC3C2OP(=O)(O)O1 (stereo not drawn) [ITPP, inositol-tripyrophosphate]
basal value of the red blood cell count ([3]; 12 days after ingestion of ITPP, once ΔP50 becomes 0%): restored | toxicity ([3]; administered orally): little or no toxicity | number of white blood cells ([3]; blood from mice in different groups, day 0, 7 and 11): no significant differences | number of red blood cells ([3]; mice having ingested ITPP, blood counts day 0, 7 and 11): reduced | acceptance / harm to the animals ([3]; mice, ITPP-solution 20g/L (27mM) in drinking water for 4 days): neither rejected by the mice, nor harmful to the animals | level of ions, such as sodium and potassium and calcium ([3]; mice, after oral application, serum, day 0, 7 and 11): normal | concentration well tolerated by mice ([4]; intraperitoneal injection): ≤ 150000 µM | level of ions, such as sodium, potassium and calcium ([4]; mice, after ip injection): normal | lysis of the red blood cells (whole blood; in vitro): never occurred | P50 shifts to higher PO2 (whole blood; with murine whole blood): up to 40% | reduction of the amount of VEGF mRNAs detected in the tumors (VEGF mRNA): 10,000 factor | P50 values of circulating red blood cells shifted [5]: up to 23% | P50 shift ([6]; IV, CaCl2 solution (equimolar to ITPP) injected with the ITPP solution): approximately 20 % of the basal value | shift of P50 ([6]; intravenous): right shift of P50 was observed | Ca^2+ conc. ([7]; 10 min after completion of injection (before injection 2.38)): 1.73 mmol/L | Ca^2+ conc. ([7]; 24 hrs after injection (before injection 2.38)): 2.36 mmol/L | level of calcium ([7]; piglets, IV, CaCl2 (equimolar to ITPP) injected with ITPP): remained constant | level of the other ions sodium and potassium ([7]; piglets, after IV injection of ITPP): unchanged | P50 shifts to higher PO2 (murine hemoglobin): up to 250% | P50 values after 12 days ([8]; ingestion stopped on day 4): back to control values | right shifts of P50 ([8]; mice, oral application, 27 mM): up to 31% | time lag before the maximum shift is attained ([8]; mice, oral, 27 mM): approximately 48 hrs
